Laboratory results as given in patent US20250032430A1, “USES OF RHODOQUINONE FOR THE TREATMENT OF DISEASE” (Whitehead Institute for Biomedical Research, priority 2021, published 2025).

System: SW1353, U87, DLD1, HCT116, C2C12, primary dermal fibroblasts, Mink lung epithelial cells
Test: Fumarate reduction in a panel of other cell lines
Type: cell-based
Details: other human cancer cell lines
Description: Stable isotope tracing in cells: Cells were seeded 24 hours prior to the experiment in 6-well dishes at 70% density. For stable isotope tracing of glutamine, glutamine-free DMEM (ThermoFisher) was supplemented with 2 mM ^13C5^15N2-glutamine (Sigma), 1 mM pyruvate, 5% FBS, 1% P/S, 0.1 mg/mL uridine. For stable isotope tracing of aspartate, DMEM containing 5% FBS, and 1% penicillin and streptomycin, and 0.1 mg/mL uridine (Sigma) was supplemented with the designated amount of 13C4-aspartate (Sigma) and the pH adjusted to 7.4. Uridine was left out of the media for stable isotope tracing experiments measuring nucleotide biosynthesis. Unless otherwise stated, for all experiments, cells were treated for 8 hours and metabolites were isolated as described below. Relevant compounds were added at the start of the incubation periods.

antimycin
fumarate reduction: increased
